Reference: article PMC8282008, “Brigatinib causes tumor shrinkage in both NF2-deficient meningioma and schwannoma through inhibition of multiple tyrosine kinases but not ALK” (PLoS ONE, 2021)

Assays:
Type in all cases: cell-based
[1] = molecular target: T1, GAK (Cyclin G-associated kinase) (Homo sapiens, UniProt O14976); test: NanoBRET TE intracellular kinase assay with K-10 tracer in HEK293T cells
T1 construct: NanoLuc fusion (Promega NV1421)
T1 sequence (O14976 1-1311): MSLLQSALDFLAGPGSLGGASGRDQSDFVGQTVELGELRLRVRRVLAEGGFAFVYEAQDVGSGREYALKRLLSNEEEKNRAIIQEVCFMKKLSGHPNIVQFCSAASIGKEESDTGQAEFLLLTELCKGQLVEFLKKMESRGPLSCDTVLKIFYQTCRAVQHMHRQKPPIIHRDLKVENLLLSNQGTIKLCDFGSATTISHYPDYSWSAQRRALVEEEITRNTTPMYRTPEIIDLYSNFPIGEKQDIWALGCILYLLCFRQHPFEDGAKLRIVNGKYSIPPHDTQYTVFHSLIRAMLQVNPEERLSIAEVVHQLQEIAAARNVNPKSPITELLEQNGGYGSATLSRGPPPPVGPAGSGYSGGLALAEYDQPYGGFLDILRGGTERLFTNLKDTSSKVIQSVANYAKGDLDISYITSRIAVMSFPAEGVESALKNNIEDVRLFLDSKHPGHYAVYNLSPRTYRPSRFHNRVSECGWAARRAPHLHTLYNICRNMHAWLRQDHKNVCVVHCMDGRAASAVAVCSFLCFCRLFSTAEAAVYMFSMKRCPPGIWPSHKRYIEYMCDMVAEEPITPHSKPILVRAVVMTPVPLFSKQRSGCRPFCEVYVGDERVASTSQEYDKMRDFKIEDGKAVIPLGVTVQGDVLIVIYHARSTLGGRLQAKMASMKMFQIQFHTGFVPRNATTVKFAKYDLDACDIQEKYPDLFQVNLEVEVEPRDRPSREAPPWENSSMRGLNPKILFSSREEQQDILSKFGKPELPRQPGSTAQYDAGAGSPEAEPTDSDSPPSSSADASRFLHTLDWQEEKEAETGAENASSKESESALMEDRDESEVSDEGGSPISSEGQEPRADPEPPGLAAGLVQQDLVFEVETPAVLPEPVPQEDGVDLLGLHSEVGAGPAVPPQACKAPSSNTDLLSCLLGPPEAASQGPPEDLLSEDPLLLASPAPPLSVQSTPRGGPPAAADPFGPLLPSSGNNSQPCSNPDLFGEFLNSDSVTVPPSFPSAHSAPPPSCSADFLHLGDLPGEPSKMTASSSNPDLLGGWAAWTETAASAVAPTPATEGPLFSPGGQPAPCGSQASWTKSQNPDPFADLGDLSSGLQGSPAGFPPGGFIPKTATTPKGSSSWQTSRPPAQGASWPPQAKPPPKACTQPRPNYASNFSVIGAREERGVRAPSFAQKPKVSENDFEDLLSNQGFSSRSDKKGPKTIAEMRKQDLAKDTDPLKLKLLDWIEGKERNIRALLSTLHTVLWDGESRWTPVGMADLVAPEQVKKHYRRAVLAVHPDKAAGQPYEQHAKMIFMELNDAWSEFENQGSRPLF

[2] = molecular target: T2, TNK2 (ACK1, Activated Cdc42-associated kinase) (Homo sapiens, UniProt Q07912); test: as above
T2 construct: NanoLuc fusion (Promega NV4451)

[3] = molecular target: T3, FAK1 (PTK2, focal adhesion kinase 1) (Homo sapiens, UniProt Q05397); test: as above
T3 construct: NanoLuc fusion (Promega NV1921)

FAK2 (PTK2B) = FAK2 (PTK2B) (Homo sapiens, UniProt Q14289); test: MIB/MS kinome profiling, HS01/HS11 Schwann cells, […] (text: lysate treatment; legend: cells treated […] h)
[4] = molecular target: T4, FER (Fps/Fes-related kinase) (Homo sapiens, UniProt P16591); test: NanoBRET TE intracellular kinase assay with K-10 tracer in HEK293T cells
T4 construct: NanoLuc fusion (Promega NV1331)
T4 sequence (P16591 whole entry, the tested form may be a part): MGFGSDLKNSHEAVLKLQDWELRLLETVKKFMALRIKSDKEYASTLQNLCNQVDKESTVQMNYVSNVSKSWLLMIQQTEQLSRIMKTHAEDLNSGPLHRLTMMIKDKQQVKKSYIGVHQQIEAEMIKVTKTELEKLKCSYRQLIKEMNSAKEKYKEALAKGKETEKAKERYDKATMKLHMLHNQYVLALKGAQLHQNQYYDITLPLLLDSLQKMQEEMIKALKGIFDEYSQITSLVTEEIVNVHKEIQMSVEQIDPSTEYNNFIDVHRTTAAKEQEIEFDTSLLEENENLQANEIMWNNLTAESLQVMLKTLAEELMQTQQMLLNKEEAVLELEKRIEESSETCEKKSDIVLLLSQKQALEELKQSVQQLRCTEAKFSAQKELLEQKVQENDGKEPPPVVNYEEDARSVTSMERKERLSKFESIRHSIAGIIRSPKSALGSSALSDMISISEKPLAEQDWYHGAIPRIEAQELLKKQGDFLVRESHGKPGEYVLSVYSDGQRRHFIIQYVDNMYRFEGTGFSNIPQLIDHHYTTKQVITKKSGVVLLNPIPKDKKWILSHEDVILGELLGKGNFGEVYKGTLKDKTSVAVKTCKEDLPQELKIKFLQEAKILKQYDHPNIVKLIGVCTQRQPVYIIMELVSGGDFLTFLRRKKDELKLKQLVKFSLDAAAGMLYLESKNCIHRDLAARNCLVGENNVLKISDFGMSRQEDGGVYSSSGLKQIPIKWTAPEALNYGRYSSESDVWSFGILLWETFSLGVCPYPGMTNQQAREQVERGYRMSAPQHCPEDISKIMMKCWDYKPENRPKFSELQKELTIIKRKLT

T2 sequence (Q07912 whole entry, the tested form may be a part): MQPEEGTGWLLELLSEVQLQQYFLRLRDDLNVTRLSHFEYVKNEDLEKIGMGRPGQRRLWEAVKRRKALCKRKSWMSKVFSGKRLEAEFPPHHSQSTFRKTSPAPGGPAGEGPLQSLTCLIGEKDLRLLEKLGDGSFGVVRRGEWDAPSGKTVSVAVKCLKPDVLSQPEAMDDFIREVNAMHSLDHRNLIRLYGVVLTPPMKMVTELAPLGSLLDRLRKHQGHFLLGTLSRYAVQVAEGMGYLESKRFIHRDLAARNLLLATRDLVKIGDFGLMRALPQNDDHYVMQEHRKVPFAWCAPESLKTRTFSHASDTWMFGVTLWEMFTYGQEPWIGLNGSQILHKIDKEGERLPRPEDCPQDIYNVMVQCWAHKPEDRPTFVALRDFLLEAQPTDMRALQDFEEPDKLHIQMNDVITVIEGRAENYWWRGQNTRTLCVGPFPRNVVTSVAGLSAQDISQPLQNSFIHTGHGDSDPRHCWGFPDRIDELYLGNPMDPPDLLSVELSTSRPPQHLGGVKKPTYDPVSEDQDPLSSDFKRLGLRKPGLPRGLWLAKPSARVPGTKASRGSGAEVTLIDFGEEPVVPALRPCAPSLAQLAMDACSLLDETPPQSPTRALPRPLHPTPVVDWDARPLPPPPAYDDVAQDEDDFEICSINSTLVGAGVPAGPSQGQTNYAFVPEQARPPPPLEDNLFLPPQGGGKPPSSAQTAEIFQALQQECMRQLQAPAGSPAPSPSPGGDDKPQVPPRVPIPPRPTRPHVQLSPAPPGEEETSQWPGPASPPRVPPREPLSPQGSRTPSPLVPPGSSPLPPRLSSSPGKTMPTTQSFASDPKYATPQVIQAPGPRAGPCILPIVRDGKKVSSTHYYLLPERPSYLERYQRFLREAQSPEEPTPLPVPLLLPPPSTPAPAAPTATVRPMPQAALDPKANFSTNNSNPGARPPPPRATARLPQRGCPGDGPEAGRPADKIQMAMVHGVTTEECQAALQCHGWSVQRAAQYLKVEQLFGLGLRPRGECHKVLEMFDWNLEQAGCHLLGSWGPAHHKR
T3 sequence (Q05397 2-1052): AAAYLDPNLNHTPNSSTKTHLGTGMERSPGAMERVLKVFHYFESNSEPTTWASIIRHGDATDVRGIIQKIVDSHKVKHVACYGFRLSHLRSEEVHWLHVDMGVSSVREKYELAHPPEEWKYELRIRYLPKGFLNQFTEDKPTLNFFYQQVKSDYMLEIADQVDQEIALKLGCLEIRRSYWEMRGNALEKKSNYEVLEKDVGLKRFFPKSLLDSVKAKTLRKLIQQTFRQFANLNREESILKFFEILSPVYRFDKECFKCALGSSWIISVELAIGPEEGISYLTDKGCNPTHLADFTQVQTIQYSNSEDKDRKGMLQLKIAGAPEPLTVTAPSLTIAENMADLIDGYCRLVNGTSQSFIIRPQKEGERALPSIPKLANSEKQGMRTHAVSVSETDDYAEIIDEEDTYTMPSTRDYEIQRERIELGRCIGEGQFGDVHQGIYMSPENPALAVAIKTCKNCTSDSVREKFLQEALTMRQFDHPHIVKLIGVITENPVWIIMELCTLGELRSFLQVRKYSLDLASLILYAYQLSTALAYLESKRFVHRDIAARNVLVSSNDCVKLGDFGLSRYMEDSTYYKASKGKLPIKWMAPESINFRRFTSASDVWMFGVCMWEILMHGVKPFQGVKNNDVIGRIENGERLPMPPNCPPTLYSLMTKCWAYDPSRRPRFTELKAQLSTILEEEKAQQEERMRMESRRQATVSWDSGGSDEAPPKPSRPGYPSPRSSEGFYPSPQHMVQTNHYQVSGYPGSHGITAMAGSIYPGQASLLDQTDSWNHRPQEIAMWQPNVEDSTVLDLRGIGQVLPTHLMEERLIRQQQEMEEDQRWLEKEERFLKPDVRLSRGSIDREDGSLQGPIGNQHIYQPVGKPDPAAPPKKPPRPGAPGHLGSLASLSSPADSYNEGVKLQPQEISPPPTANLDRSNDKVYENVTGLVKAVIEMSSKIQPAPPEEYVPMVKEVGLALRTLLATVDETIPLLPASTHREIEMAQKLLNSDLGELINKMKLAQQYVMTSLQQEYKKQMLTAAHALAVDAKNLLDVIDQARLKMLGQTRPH
Sequence of FAK2 (PTK2B) (Q14289 whole entry): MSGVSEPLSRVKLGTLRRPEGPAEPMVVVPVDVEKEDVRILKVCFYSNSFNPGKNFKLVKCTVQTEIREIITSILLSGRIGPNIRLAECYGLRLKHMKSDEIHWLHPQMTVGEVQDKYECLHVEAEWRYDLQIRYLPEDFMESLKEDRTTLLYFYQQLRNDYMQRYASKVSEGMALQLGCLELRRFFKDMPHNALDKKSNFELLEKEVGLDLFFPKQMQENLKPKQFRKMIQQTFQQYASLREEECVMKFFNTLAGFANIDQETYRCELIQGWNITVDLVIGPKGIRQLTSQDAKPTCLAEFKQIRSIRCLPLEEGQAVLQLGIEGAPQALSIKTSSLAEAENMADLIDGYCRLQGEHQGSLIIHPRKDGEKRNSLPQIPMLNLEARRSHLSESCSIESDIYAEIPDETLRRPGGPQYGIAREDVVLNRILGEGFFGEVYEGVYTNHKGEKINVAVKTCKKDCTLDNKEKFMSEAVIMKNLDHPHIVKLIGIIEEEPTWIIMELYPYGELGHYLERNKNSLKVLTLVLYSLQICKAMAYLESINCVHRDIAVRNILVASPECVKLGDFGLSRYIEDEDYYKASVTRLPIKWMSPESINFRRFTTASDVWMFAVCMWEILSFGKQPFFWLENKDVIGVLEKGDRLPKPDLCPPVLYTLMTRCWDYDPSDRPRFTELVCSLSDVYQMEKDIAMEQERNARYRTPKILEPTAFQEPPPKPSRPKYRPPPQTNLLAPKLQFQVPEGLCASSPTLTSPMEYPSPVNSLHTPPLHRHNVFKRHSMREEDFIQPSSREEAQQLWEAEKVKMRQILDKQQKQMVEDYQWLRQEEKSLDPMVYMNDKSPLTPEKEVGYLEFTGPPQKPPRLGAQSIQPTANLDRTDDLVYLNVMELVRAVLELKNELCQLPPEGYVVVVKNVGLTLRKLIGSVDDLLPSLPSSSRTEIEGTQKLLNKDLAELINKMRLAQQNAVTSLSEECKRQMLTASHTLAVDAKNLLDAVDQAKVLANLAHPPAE

## COc1cc(N2CCC(N3CCN(C)CC3)CC2)ccc1Nc1ncc(Cl)c(Nc2ccccc2P(C)(C)=O)n1 [brigatinib]
[1]
  IC50: 155 nM
[2]
  IC50: 350 nM
[3]
  IC50: 573 nM
FAK2 (PTK2B)
  MIB/MS kinome profiling, HS01/HS11 Schwann cells, 1 uM (text: lysate treatment;): kinases with the largest reduction in binding were FER, TNK2, FAK1 (PTK2) and FAK2 (PTK2B)
[4]
  IC50: 304 nM
